Here are results for two compounds from patent publication US6656962B2, “Use of amino-isoxazolidone compounds for improvement of lexical priming” (Pharmacia Corporation, priority 1994, dated 2003).

Assay [1] deals with T1, NMDA receptor complex ([3H]TCP binding) (Rattus norvegicus, UniProt P35439).
T1 construct: Triton X-100 washed synaptic plasma membranes (SPM) prepared from rat forebrain; from tissue; host or cells: rat forebrain synaptic plasma membranes (male Sprague-Dawley, 30-45 days old), Triton X-100 washed
Kind of assay: Assay B: TCP Modulation Assay (stimulation of [3H]TCP binding to synaptic plasma membranes). It is filed as biochemical. Here is the method: [3H]TCP binding was performed using Triton X-100 washed synaptic plasma membranes (SPM) prepared from rat forebrain (30-45 day old, male SpragueDawley; Sasco, St. Charles, Mo.) as described previously [J. W. Thomas, W. F. Hood, J. B. Monahan, P. C. Contreras and T. L. O'Donohue, Brain Res., 442, 396-398 (1988)]. […] The samples were then filtered through glass fiber filters (Schleicher and Schuell #32) which were pretreated with 0.05% (v/v) polyethylenimine. The filters were washed and the radioactivity quantitated by liquid scintillation spectrometry. […] The EC50 values for the stimulation of [3H]TCP binding were determined using a four parameter logistic regression analysis.

Assay [2] concerns implicit memory (priming) in Alzheimer patients. Kind of assay: Assay C: Implicit Memory Paradigm (word identification test, priming) in Alzheimer patients. Particulars: 15 mg twice daily. The format is in vivo, human. The text has this: In this test, subjects identify words presented in a visually degraded or masked format in which only parts of each letter are shown. Subjects view several lists of these degraded words over a period of three days, some of which are repeated from day-to-day and some that are new. Learning, or what is referred to as “priming”, is shown on this test when subjects identify a larger number of repeated or old words than new words. […] The diagnosis of probable Alzheimer's disease was made according to the criteria defined by the National Institute on Neurological Disorders and Stroke Work Group [G. McKhann et al, Neurology, 34, 939-944 (1984)]. This diagnosis was based on clinical evaluation that included neuropsychological assessment, laboratory blood screening, neurolgical examination, and either a CT or MRI scan. The criteria for entry into the study was Mini-mental State Examination score between 12 and 24 inclusive [M. Folstein et al, J. Psych. Res., 12, 189-198 (1975)], Global Deterioration Scale score between 3 and 5 inclusive [B. Reisberg et al, Am. J. Psych., 139, 1136-1139 (1982)], Modified […], ischemic score of 4 or less [G. W. Small et al, J. Clin. Psych., 46, 514-517 […]], and Hamilton Psychiatric Rating Scale for Depression score of 17 or less [M. Hamilton, Neurology and Neurosurgery, 23, 56-62 (1960)]. Patients with medical, neurological, or psychiatric illnesses other than Alzheimer's disease that could account for the abnormal mental status were excluded. […] The eligibility of patients was assessed during a 28-day period before the study began. […] All unused medication was returned and counted to check for compliance in taking the drug. […] The total increase in priming was calculated by first deriving the amount of priming that occurred on each trial (i.e., difference in the proportion of old and new words identified). […] Priming is not calculated on trial 1 because from the patient's perspective there are no old words on trial 1; the words begin to repeat on the second trial.

The test system of assay [3] is recognition memory and attention in Alzheimer patients. The following applies: Alzheimer's disease patients, Searle Protocol NC6-93-06-009; cited from earlier work.
The mark [4] stands for this setting: oral, tenth week of treatment, Alzheimer patients.

`NC1CONC1=O` (single isomer, unassigned) [D-cycloserine, 4-amino-3-isoxazolidone]: the “effect on glycine stimulation of [3H]TCP binding” value in assay [1] (in the presence of glycine (0.1-0.6 μM)) is recorded as “reduces the maximal level of glycine stimulation”. In addition, in assay [2] (setting [4]), the “patients who improved their priming scores from trial 2 to trial 9” value is recorded as 68% and the “total increase in priming vs placebo (post-hoc Scheffe test)” value was “significant difference in performance”. Moreover, in assay [2] (trials 2 to 9, Alzheimer patients), the “linear trend in priming across trials” value is on record as “significant linear trend across trials”. Moreover, the “performance on recognition memory and attentional tests” value in assay [3] is recorded as “did not improve performance”.

On to `c1csc(C2(N3CCCCC3)CCCCC2)c1` [[3H]TCP], for which, in assay [1] (basal conditions), the Kd worked out at 44 nM.

One may read the Kd as the constant that tells how readily two partners part at equilibrium. High values mean lower affinity, low ones higher affinity.
